Laboratory results published in patent US20020137929A1, “1 - (3-heterocyclylphenyl) isothiourea, -isourea, -guanidine and -amidine herbicidal agents” (Intellectual Property Department, BASF Aktiengesellschaft, priority 1998, published 2002).

Key:
[1] = tested on: GLXMAW (Soybean, Williams); test: Preemergence herbicidal evaluation; type: in vivo, Glycine max, (L.) Merr. cv Williams; settings: rated 4-5 weeks after treatment
Procedure, shortened: (§1)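 Scores use a 0–9 visual scale covering stand, vigor, malformation, size and chlorosis relative to controls, rated four to five weeks after treatment. Before emergence, soil-planted seeds were sprayed with compound in aqueous acetone at roughly 0.0156–0.500 kg/ha and held in the greenhouse.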

[2] = tested on: TRZAWR (Wheat, Winter, cv Riband); test: Preemergence herbicidal evaluation; type: in vivo, Triticum aestivum; settings: rated 4-5 weeks after treatment
Procedure, shortened: as §1

CASOB (Sicklepod) = test: Postemergence herbicidal evaluation; type: in vivo, Cassia obtusifolia; settings: for CASOB herbicidal rating: postemergence
Procedure, shortened: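 First, seedlings were raised for around two weeks. Next, test material in 50/50 acetone/water containing 0.5% TWEEN 20 was sprayed through a nozzle at 40 psi, equivalent to about 0.0156–0.500 kg/ha. Finally, after 4–5 weeks in the greenhouse, plants were rated 0–9.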

MOOVA (Monochoria) = test: Postemergence weed control under flooded paddy conditions; type: in vivo, Monochoria vaginalis; settings: postemergence weeds, 3-4 weeks after treatment
Procedure, shortened: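 Herbicidal effect is judged by eye on a 0–9 scale versus control, 3–4 weeks after dosing. Dosing is into flood water kept 1.5–3 cm over the soil, at about 0.0313–0.500 kg/ha in aqueous/acetone 50/50 v/v, on 3–5 cm weeds and 1.5–2.5-leaf rice seedlings.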

[3] = tested on: SAGPY (Arrowhead (Pygmaea)); test: Preemergence weed control under flooded paddy conditions; type: in vivo, Sagittaria pygmaea; settings: rated 3-4 weeks after treatment
Procedure, shortened: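 Seeds or propagules sown in silt loam kept flooded 1.5-3 cm; compounds in 50/50 acetone/water pipetted into flood water at about 0.0313 to 0.500 kg/ha. Greenhouse; visual 0-9 rating versus untreated control 3-4 weeks after treatment.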

ORYSAT (Rice, Tebonnet) = test: Preemergence herbicidal evaluation; type: in vivo, Oryza sativa, (L.) Tebonnet; settings: rated 4-5 weeks after treatment
Procedure, shortened: as §1

| Structure (SMILES) | GLXMAW preemergence herbicidal rating ([1]; rate 0.0625 kg/ha) | GLXMAW preemergence herbicidal rating ([1]; rate 0.1250 kg/ha) | GLXMAW preemergence herbicidal rating ([1]; rate 0.2500 kg/ha) | TRZAWR preemergence herbicidal rating ([2]; rate 0.0625 kg/ha) | TRZAWR preemergence herbicidal rating ([2]; rate 0.1250 kg/ha) | TRZAWR preemergence herbicidal rating ([2]; rate 0.2500 kg/ha) | Herbicidal rating MOOVA (MOOVA (Monochoria); rate 0.0313 kg/ha) | Herbicidal rating MOOVA (MOOVA (Monochoria); rate 0.0625 kg/ha) | Herbicidal rating MOOVA (MOOVA (Monochoria); rate 0.1250 kg/ha) | Herbicidal rating MOOVA (MOOVA (Monochoria); rate 0.2500 kg/ha) | Herbicidal rating SAGPY ([3]; 0.0313 kg/ha) | Herbicidal rating SAGPY ([3]; 0.0625 kg/ha) | Herbicidal rating SAGPY ([3]; 0.1250 kg/ha) | Herbicidal rating SAGPY ([3]; 0.2500 kg/ha) | ORYSAT preemergence herbicidal rating (ORYSAT (Rice, Tebonnet); rate 0.0625 kg/ha) | ORYSAT preemergence herbicidal rating (ORYSAT (Rice, Tebonnet); rate 0.1250 kg/ha) | ORYSAT preemergence herbicidal rating (ORYSAT (Rice, Tebonnet); rate 0.2500 kg/ha) | further results |
| --- | --- | --- | --- | --- | --- | --- | --- | --- | --- | --- | --- | --- | --- | --- | --- | --- | --- | --- |
| CCOC(=O)CN1C(=O)CN(C)C1=Nc1cc(-n2c(=O)cc(C(F)(F)F)n(C)c2=O)c(F)cc1Cl [Compound 25, Ethyl 2-{{2-chloro-5-[3,6-dihydro-3-methyl-2,6-dioxo-4-(trifluoromethyl)-1(2H)-pyrimidinyl]-4-fluorophenyl}imino}-3-methyl-5-oxo-1-imidazolidineacetate] | 2.0 | 3.0 | 6.0 | 2.0 | 3.0 | 6.0 | 9.0 | 9.0 | 9.0 | 9.0 | 0.0 | 0.0 | 5.0 | 5.0 | 0.0 | 2.0 | 5.0 | Preemergence herbicidal rating GLXMAW ([1]; rate 0.0156 kg/ha): 0.0; Preemergence herbicidal rating GLXMAW ([1]; rate 0.0313 kg/ha): 0.0; Preemergence herbicidal rating TRZAWR ([2]; rate 0.0156 kg/ha): 0.0; Preemergence herbicidal rating TRZAWR ([2]; rate 0.0313 kg/ha): 1.0; CASOB herbicidal rating (CASOB (Sicklepod); rate 0.0156 kg/ha): 0.0; CASOB herbicidal rating (CASOB (Sicklepod); rate 0.0313 kg/ha): 0.0; CASOB herbicidal rating (CASOB (Sicklepod); rate 0.0625 kg/ha): 0.0; Preemergence herbicidal rating ORYSAT (ORYSAT (Rice, Tebonnet); rate 0.0156 kg/ha): 0.0; Preemergence herbicidal rating ORYSAT (ORYSAT (Rice, Tebonnet); rate 0.0313 kg/ha): 0.0 |
| CCOC(=O)CN1C(=O)CO/C1=N/c1cc(-n2c(=O)cc(C(F)(F)F)n(C)c2=O)c(F)cc1Cl [Compound 22, Ethyl 2-{{2-chloro-5-[3,6-dihydro-3-methyl-2,6-dioxo-4-(trifluoromethyl)-1(2H)-pyrimidinyl]-4-fluorophenyl}imino}-4-oxo-3-oxazolidineacetate] | 3.0 | 7.0 | 9.0 | 1.0 | 5.0 | 7.0 | – | – | – | – | – | – | – | – | 0.0 | 5.0 | 8.0 | GLXMAW preemergence herbicidal rating ([1]; rate 0.0156 kg/ha): 0.0; GLXMAW preemergence herbicidal rating ([1]; rate 0.0313 kg/ha): 0.0; TRZAWR preemergence herbicidal rating ([2]; rate 0.0156 kg/ha): 0.0; TRZAWR preemergence herbicidal rating ([2]; rate 0.0313 kg/ha): 0.0; CASOB herbicidal rating (CASOB (Sicklepod); rate 0.0158 kg/ha): 1.0; CASOB herbicidal rating (CASOB (Sicklepod); rate 0.0315 kg/ha): 2.0; CASOB herbicidal rating (CASOB (Sicklepod); rate 0.0630 kg/ha): 1.0; Herbicidal rating MOOVA (MOOVA (Monochoria); rate 0.1160 kg/ha): 9.0; Herbicidal rating MOOVA (MOOVA (Monochoria); rate 0.2310 kg/ha): 9.0; Herbicidal rating MOOVA (MOOVA (Monochoria); rate 0.4630 kg/ha): 9.0; Herbicidal rating SAGPY ([3]; 0.1160 kg/ha): 4.0; Herbicidal rating SAGPY ([3]; 0.2310 kg/ha): 4.0; Herbicidal rating SAGPY ([3]; 0.4630 kg/ha): 5.0; ORYSAT preemergence herbicidal rating (ORYSAT (Rice, Tebonnet); rate 0.0156 kg/ha): 0.0; ORYSAT preemergence herbicidal rating (ORYSAT (Rice, Tebonnet); rate 0.0313 kg/ha): 0.0 |
| CCOC(=O)CN1C(=O)C(CC(=O)OC(C)C)SC1=Nc1cc(-n2c(=O)cc(C(F)(F)F)n(C)c2=O)c(F)cc1Cl (stereo not drawn) [Compound 55, 2-{{2-Chloro-5-[3,6-dihydro-3-methyl-2,6-dioxo-4-(trifluoromethyl)-1(2H)-pyrimidinyl]-4-fluoro-phenyl}imino}-4-oxo-3,5-thiazolidinediacetic acid, 3-ethyl isopropyl ester] | – | – | – | – | – | – | 9.0 | 9.0 | 9.0 | 9.0 | 0.0 | 0.0 | 0.0 | 0.0 | – | – | – | Postemergence herbicidal rating CASOB (CASOB (Sicklepod); Rate 0.0158 kg/ha): 1.0; Postemergence herbicidal rating CASOB (CASOB (Sicklepod); Rate 0.0313 kg/ha): 7.7; Postemergence herbicidal rating CASOB (CASOB (Sicklepod); Rate 0.0625 kg/ha): 9.0; Postemergence herbicidal rating CASOB (CASOB (Sicklepod); Rate 0.1250 kg/ha): 8.0; Postemergence herbicidal rating CASOB (CASOB (Sicklepod); Rate 0.2500 kg/ha): 9.0 |
